According to US8163909B2, “Substituted hydroxyethyl amine compounds as beta-secretase modulators and methods of use” (Amgen Inc., priority 2007, dated 2012):
Like-named read-outs stand apart in the source and are kept apart here.

Columns and labels:
[1] = Microsomal stability assay, human liver microsomes;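 note: pooled human liver microsomes at 0.25 mg/mL with 1 µM compound and NADPH at 37 °C, pH 7.4, for 30 min, unchanged parent quantified by LC-MS/MS against the 0 min sample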
[2] = target: CYP2D6 (Homo sapiens, UniProt P10635); assay: CYP2D6 inhibition assay (bufuralol, pooled human liver microsomes)
[3] = target: Beta Secretase enzyme (BACE) (Homo sapiens, UniProt P56817); assay: In vitro enzymatic BACE FRET (fluorescence resonance energy transfer) assay; assay type: biochemical;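 note: fluorescence read after 1 h with 50 nM quenched peptide substrate spanning the BACE cleavage site, in pH 4.2 acetate buffer containing 10% DMSO and nonionic detergent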
[4] = system: Aβ40 in conditioned medium of cells stably expressing Amyloid Precursor Protein (APP); assay: In vitro BACE cell-based assay (Aβ40 in conditioned medium, sandwich ELISA); settings: Homo sapiens;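 note: compounds added as a dilution series, secreted peptide quantified by europium time-resolved fluorescence readout, potency fitted from percent of control versus compound concentration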
[5] = target: CYP3A4 (CYP3A) (Homo sapiens, UniProt P08684); assay: in vitro; settings: microsomes, pH 7.4;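 note: inhibition of CYP3A-mediated 1-hydroxymidazolam formation after 10 min incubation with NADPH, quantified by HPLC MS relative to metabolite produced without test compound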
[6] = Microsomal stability assay, rat liver microsomes;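 note: rat liver microsomes (0.25 mg/mL) with about 1 µM compound plus 1 mM NADPH, pH 7.4, 37 °C for 30 min, parent left measured by LC-MS/MS against 0 min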
[7] = 2D6 IC50 (uM), CYP enzyme inhibition
[8] = BACE enzyme assay, read-out: BACE1 FRET assay
[9] = HEK293, HEK cells, read-out: HEK cell assay
[10] = 2D6 IC50, CYP enzyme inhibition
[11] = Table 2, read-out: BACE1 FRET assay
[12] = HEK293, Table 2, HEK cells, read-out: HEK cell assay
[13] = BACE enzyme assay, IC50's in uM, read-out: BACE1 FRET assay
[14] = HEK293, HEK cell-based assay, IC50's in uM, read-out: HEK cell assay
[15] = 2D6 IC50 (uM), CYP2D6 inhibition
[16] = BACE enzyme assay IC50, read-out: BACE1 FRET assay
[17] = HEK293, HEK cell-based assay IC50, read-out: HEK cell assay
[18] = read-out: BACE1 FRET assay (IC50)
[19] = HEK293, HEK cells, read-out: HEK cell assay (IC50)

Chain of CYP3A4 (CYP3A) (P08684 2-503): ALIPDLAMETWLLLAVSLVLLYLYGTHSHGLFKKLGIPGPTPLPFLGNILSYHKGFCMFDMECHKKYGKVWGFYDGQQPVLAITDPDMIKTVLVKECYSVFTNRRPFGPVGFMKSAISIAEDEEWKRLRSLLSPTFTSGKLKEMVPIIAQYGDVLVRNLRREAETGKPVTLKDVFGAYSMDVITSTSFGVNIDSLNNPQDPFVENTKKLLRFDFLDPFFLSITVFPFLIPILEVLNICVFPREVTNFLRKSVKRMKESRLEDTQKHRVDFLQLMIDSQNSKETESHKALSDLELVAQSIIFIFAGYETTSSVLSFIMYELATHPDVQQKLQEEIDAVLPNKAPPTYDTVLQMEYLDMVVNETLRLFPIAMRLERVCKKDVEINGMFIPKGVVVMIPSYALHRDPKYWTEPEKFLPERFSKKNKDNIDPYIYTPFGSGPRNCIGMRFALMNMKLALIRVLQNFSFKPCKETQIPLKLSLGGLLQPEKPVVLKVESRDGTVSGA
Chain of CYP2D6 (P10635 whole entry): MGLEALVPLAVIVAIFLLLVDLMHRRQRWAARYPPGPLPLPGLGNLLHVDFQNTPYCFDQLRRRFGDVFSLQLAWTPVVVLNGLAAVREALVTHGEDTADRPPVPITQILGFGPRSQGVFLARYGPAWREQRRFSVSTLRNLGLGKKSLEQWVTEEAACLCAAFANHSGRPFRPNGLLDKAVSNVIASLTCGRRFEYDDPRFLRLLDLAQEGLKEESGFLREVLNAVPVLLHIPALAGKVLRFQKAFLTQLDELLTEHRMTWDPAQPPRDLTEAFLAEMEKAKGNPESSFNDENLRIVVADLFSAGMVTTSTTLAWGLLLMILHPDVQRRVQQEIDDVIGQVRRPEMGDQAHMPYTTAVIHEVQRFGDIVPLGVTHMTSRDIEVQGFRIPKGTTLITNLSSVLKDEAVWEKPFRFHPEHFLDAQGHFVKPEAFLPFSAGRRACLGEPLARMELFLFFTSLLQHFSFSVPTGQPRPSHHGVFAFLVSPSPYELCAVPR
Chain of Beta Secretase enzyme (BACE) (P56817 46-501): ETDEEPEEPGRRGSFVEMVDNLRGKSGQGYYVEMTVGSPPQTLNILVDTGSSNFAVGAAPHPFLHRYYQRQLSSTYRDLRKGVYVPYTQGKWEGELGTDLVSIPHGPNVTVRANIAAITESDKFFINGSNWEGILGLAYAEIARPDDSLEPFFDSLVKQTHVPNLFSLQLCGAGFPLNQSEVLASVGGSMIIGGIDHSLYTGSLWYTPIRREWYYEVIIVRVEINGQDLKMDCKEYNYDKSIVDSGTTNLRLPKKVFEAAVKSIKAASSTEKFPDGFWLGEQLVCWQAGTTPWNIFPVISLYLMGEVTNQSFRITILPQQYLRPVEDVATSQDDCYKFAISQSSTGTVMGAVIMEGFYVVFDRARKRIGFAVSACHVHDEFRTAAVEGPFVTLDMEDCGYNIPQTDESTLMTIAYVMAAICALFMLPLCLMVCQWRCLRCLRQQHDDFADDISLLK

SMILES | HLM ([1]; human liver microsomal data) [µL/min/mg] | IC50 [2, 7] [µM] | IC50 [3, 8] [µM] | IC50 [4, 9] [µM] | IC50 [5] [nM] | RLM ([6]; rat liver microsomal data) [µL/min/mg] | further results
CC(C)Cc1cnc2c(c1)[C@@H](NC[C@@H](O)[C@H](Cc1ccc3c(c1)OCO3)NC(=O)[C@H](C)F)CC1(CCC1)O2 [compound 552] | 73 | 2.3 | 0.049 | 0.369 | 200 | 253 | 
CC(C)(C)Cc1cnc2c(c1)[C@@H](NC[C@@H](O)[C@H](Cc1ccc(F)cc1)NC(=O)[C@H]1CCO1)CC1(CCC1)O2 [Example 440, (2R)—N-((1S,2R)-3-(((4′S)-6′-(2,2-dimethylpropyl)-3′,4′-dihydrospiro[cyclobutane-1,2′-pyrano[2,3-b]pyridin]-4′-yl)amino)-1-((4-fluorophenyl)methyl)-2-hydroxypropyl)-2-oxetanecarboxamide] | 209 | 8.2 | 0.016 | 0.035 | 700 | 242 | 
CC(=O)N[C@@H](Cc1ccc2c(c1)OCO2)[C@H](O)CN[C@H]1CC2(CCC2)Oc2ncc(C(F)(F)C(C)(C)C)cc21 [compound 574] | 46 | 3.5 | 0.22 | 0.606 | 200 | 146 | 
CC(=O)N[C@@H](C[C@H]1CCOC1)[C@H](O)CN[C@H]1CC2(CCC2)Oc2ncc(CC(C)(C)C)cc21 [compound 469] | 60 |  |  |  | 16400 | 35 | IC50 [2, 10]: ≥ 27 µM; IC50 [3, 11]: 0.137 µM; IC50 [4, 12]: 0.162 µM
CO[C@H](C)C(=O)N[C@@H](Cc1cccc(F)c1)[C@H](O)CN[C@@H]1CC2(CCC2)Oc2c1cc(CC(C)(C)C)nc2-n1ccnc1 [compound 501] | 86 | 2.8 | 5.3 | > 10 | 100 | 175 | 
COCC(=O)N[C@@H](Cc1cc(F)cc(-c2nccs2)c1)[C@H](O)CN[C@H]1CC2(CCC2)Oc2ncc([C@@H]3CC3(C)C)cc21 [Example 773, N-((1S,2R)-3-(((4′S)-6′-((1R)-2,2-dimethylcyclopropyl)-3′,4′-dihydrospiro[cyclobutane-1,2′-pyrano[2,3-b]pyridin]-4′-yl)amino)-1-(3-fluoro-5-(1,3-thiazol-2-yl)benzyl)-2-hydroxypropyl)-2-methoxyacetamide] | 62 | 0.3 |  |  | 300 | 67 | IC50 [3, 13]: 0.003 µM; IC50 [4, 14]: 0.006 µM
Cc1nc(CN2CCO[C@@H](C(=O)N[C@@H](Cc3ccc(F)cc3)[C@H](O)CN[C@H]3CC4(CCC4)Oc4ncc(CC(C)(C)C)cc43)C2)cs1 [compound 755] | 522 | 3.3 |  |  | 300 | 191 | IC50 [3, 13]: 0.012 µM; IC50 [4, 14]: 0.007 µM
CC(=O)N[C@@H](Cc1ccc(-c2cncs2)cc1)[C@H](O)CN[C@H]1CC2(CCC2)Oc2ncc(CC(C)(C)C)cc21 [compound 694] |  |  |  |  | 200 |  | HLM ([1]; human liver microsomes): 82 µL/min/mg; IC50 [2, 15]: 0.3 µM; IC50 [3, 16]: 0.074 µM; IC50 [4, 17]: 0.071 µM; RLM ([6]; rat liver microsomes): 66 µL/min/mg
COCC(=O)N[C@@H](C[C@@H]1CCOC1)[C@H](O)CN[C@H]1CC2(CCC2)Oc2ncc(CC(C)(C)C)cc21 [compound 462] | 107 |  |  |  | 8500 | 68 | IC50 [2, 10]: 16.9 µM; IC50 [3, 11]: 0.432 µM; IC50 [4, 12]: 0.649 µM
CNc1cc(CC(C)(C)C)cc2c1OC1(CCC1)C[C@@H]2NC[C@@H](O)[C@H](Cc1cc(F)cc(F)c1)NC(=O)COC [compound 479] | 167 |  |  |  | 1800 | 329 | IC50 [2, 10]: 6.4 µM; IC50 [3, 11]: 0.011 µM; IC50 [4, 12]: 0.017 µM
COCC(=O)N[C@@H](Cc1ccc2c(c1)OCO2)[C@H](O)CN[C@H]1CC2(CCC2)Oc2ccc(C[C@H](C)F)cc21 [compound 557] | 193 | 0.5 | 3.79 | > 10 | 300 | 344 | 
C#Cc1cccc(C[C@H](NC(=O)C(OC)OC)[C@H](O)CN[C@H]2CC3(CCC3)Oc3ncc(CC(C)(F)F)cc32)c1 [compound 830] | 28 | 1.3 |  |  | 100 | 35 | IC50 [3, 13]: 0.007 µM; IC50 [4, 14]: 0.023 µM
CC(C)(C)Cc1cnc2c(c1)[C@@H](NC[C@@H](O)[C@H](Cc1cc(F)cc(-c3nccs3)c1)NC(=O)C1(C)CC1)CC1(CCC1)O2 [compound 876] | 64 |  |  |  | 200 | 91 | IC50 [2, 10]: 0.3 µM; IC50 [3, 13]: 0.036 µM; IC50 ([4]; HEK293, cell-based assay, HEK cells, IC50's in uM, read-out: HEK cell assay): 0.132 µM
CC(=O)N[C@@H](Cc1ccc(F)c(-c2cccnc2)c1)[C@H](O)CN[C@H]1CC2(CCC2)Oc2ccc(CC(C)(C)C)cc21 [compound 648] |  |  |  |  | 100 |  | HLM ([1]; human liver microsomes): 551 µL/min/mg; IC50 ([2]; 2D6 IC50, CYP2D6 inhibition): 0.4 µM; IC50 [3, 18]: 0.008 µM; IC50 [4, 19]: 0.045 µM; RLM ([6]; rat liver microsomes): 560 µL/min/mg
COCC(=O)N[C@@H](Cc1cccc(F)c1)[C@H](O)CN[C@H]1CC2(CCC2)Oc2c(-c3cscn3)cc(CC(C)C)cc21 [compound 526] | 351 | 7.3 | 0.006 | 0.053 | 600 | 503 | 
COCC(=O)N[C@H](Cc1cccc(-c2nccs2)c1)[C@@H](O)CN[C@H]1CC2(CCC2)Oc2ncc(C3CCCC3)cc21 [compound 810] | 274 | 0.5 |  |  | 100 | 271 | IC50 [3, 13]: 4.49 µM; IC50 [4, 14]: 1.34 µM
COCC(=O)N[C@@H](Cc1ccc2c(c1)OCO2)[C@H](O)CN[C@H]1CC2(CCC2)Oc2nc(F)c(CC(C)(C)C)cc21 [compound 485] | 43 |  |  |  | 100 | 106 | IC50 [2, 10]: 1.7 µM; IC50 [3, 11]: 0.12 µM; IC50 [4, 12]: 0.378 µM
CC(=O)N[C@@H](Cc1cc(F)cc(F)c1)[C@H](O)CN[C@H]1CC2(CCC2)Oc2ncc(C(F)(F)C(C)(C)C)cc21 [compound 627] |  |  |  |  | 2100 |  | HLM ([1]; human liver microsomes): 829 µL/min/mg; IC50 ([2]; 2D6 IC50, CYP2D6 inhibition): 26.1 µM; IC50 [3, 18]: 0.007 µM; IC50 [4, 19]: 0.047 µM; RLM ([6]; rat liver microsomes): 166 µL/min/mg
Cc1ccccc1CN1CCO[C@H](C(=O)N[C@@H](Cc2ccc(F)cc2)[C@H](O)CN[C@H]2CC3(CCC3)Oc3ncc(CC(C)(C)C)cc32)C1 [compound 697] |  |  |  |  | 200 |  | HLM ([1]; human liver microsomes): 775 µL/min/mg; IC50 [2, 15]: 2.7 µM; IC50 [3, 16]: 0.087 µM; IC50 [4, 17]: 0.143 µM; RLM ([6]; rat liver microsomes): 399 µL/min/mg
CC(=O)N[C@@H](Cc1cccc(-c2ccncc2)c1)[C@H](O)CN[C@H]1CC2(CCC2)Oc2ccc(CC(C)(C)C)cc21 [compound 618] |  |  |  |  | 160 |  | HLM ([1]; human liver microsomes): 413 µL/min/mg; IC50 ([2]; 2D6 IC50, CYP2D6 inhibition): 0.3 µM; IC50 [3, 18]: 0.031 µM; IC50 [4, 19]: 0.038 µM; RLM ([6]; rat liver microsomes): 344 µL/min/mg
C#Cc1cc(F)cc(C[C@H](NC(C)=O)[C@H](O)CN[C@H]2CC3(CCC3)Oc3ncc(CC(C)(C)C)cc32)c1 [compound 713, N-((1S,2R)-3-(((4′S)-6′-(2,2-dimethylpropyl)-3′,4′-dihydrospiro[cyclobutane-1,2′-pyrano[2,3-b]pyridin]-4′-yl)amino)-1-(3-ethynyl-5-fluorobenzyl)-2-hydroxypropyl)acetamide] |  |  |  |  | 100 |  | HLM ([1]; human liver microsomes): 75 µL/min/mg; IC50 [2, 15]: 1.2 µM; IC50 [3, 16]: 0.003 µM; IC50 [4, 17]: 0.015 µM; RLM ([6]; rat liver microsomes): 58 µL/min/mg
COCC(=O)N[C@@H](Cc1cc(F)cc(-c2ncc(C)s2)c1)[C@H](O)CN[C@H]1CC2(CCC2)Oc2ncc(CC(C)C)cc21 [compound 732] |  |  |  |  | 200 |  | HLM ([1]; human liver microsomes): 551 µL/min/mg; IC50 [2, 15]: 2.5 µM; IC50 [3, 16]: 0.018 µM; IC50 [4, 17]: 0.083 µM; RLM ([6]; rat liver microsomes): 399 µL/min/mg
COCC(=O)N[C@@H](Cc1cc(F)cc(F)c1)[C@H](O)CN[C@H]1CC2(CCC2)Oc2c(-c3cncs3)cc(CC(C)C)cc21 [compound 490] | 344 | 7.5 | 0.003 | 0.029 | 200 | 249 | 
CO[C@H](C)C(=O)N[C@@H](Cc1cccc(C#N)c1)[C@H](O)CN[C@H]1CC2(CC(F)(F)C2)Oc2ncc(CC(C)(C)C)cc21 [compound 471] | 569 |  |  |  | 1100 | 536 | IC50 [2, 10]: 10.3 µM; IC50 [3, 11]: 0.004 µM; IC50 [4, 12]: 0.012 µM
COCC(=O)N[C@@H](Cc1ccccc1)[C@H](O)CN[C@H]1CC2(CCC2)Oc2c(Br)cc(CC(C)C)cc21 [compound 544] | 399 | 7 | 0.005 | 0.937 | 1800 | 662 | 
